The values that follow come from patent US20080031811A1, “Method For Preparing Radioactive Film” (DONG WHA PHARM. IND. CO., LTD., priority 2004, published 2008).

SMILES strings stand for the structures.

This data set in a line: Thermal characteristic of film (TGA). It is filed as physicochemical. The conditions noted are these: measured at 500° C. How it is done: The behavior of thermal change according to temperature change in holmium nitrate, polyurethane film, and holmium-165 polyurethane film (Example 13) is measured by using a thermogravimetric analyzer (TGA, […], Germany) and a differential scanning calorimetry (DSC, […], Germany). TGA analyzes the changes in the mass of a substance according to temperature by a thermal decomposition curve. The analysis conditions of TGA are as follows; 30˜600° C. of temperature, 5.0 mg of a substance, 10° C./min of heating rate. Calorie change of a substance according to temperature change is measured by DSC. DSC is measured at the same condition as TGA and the sample is sealed in an aluminum pan under nitrogen atmosphere.

Take `O=[N+]([O-])[O-].O=[N+]([O-])[O-].O=[N+]([O-])[O-].[Ho+3]` [holmium nitrate, ^165Ho(No3)3.5H2O]: the “Residual weight % after decomposition” value is 37%.
